Test results reported in patent US12091395B2, “Griseofulvin compound” (Daiichi Sankyo Company, Limited, priority 2016, dated 2024).

Tested on: TNF-α
Test: Determination of TNF-α inhibition rate (LPS-induced inflammation in mice, serum TNF-α)
Assay type: in vivo
Details: Mus musculus, 1 h, oral 100 mg/kg in 0.5% methyl cellulose, LPS 0.4 mg/kg i.p. one hour later, serum TNF-α one hour after LPS
Description: A test substance was suspended in a 0.5%. (w/v) methyl cellulose and orally administered to mice at a dose of 100 mg/kg. One hour later, a lipopolysaccharide (LPS, Sigma-Aldrich, L2630 (trade name)) (0.4 mg/kg) was intraperitoneally administered to induce inflammation. One hour after administration of LPS, blood was taken from the vena cava under anesthesia with isoflurane, placed in a tube containing a serum separating agent, allowed to stand still at room temperature for 20-30 minutes and centrifuged at 4° C. at 12,000 rpm for 5 minutes to obtain the serum. Thereafter, the amount of the TNF-α in the serum was measured by using Mouse TNF-α Elisa Kit (Invitrogen, KMC3011C (trade name)) or Mouse TNF-α Immunoassay Kit (PerkinElmer, AL505 (trade name)) in accordance with the protocol of the kit. The serum was diluted 10 times with the dilution solution contained in the kit and put in use.
TNF-α inhibition rate (%) of the test substance was calculated in accordance with the following expression. TNF-α inhibition rate (%)=[(TNF-α amount of control group)−(TNF-α amount of test substance administration group)]×100/(TNF-α amount of control group)

Point of comparison: `COC1=CC(=O)C[C@@H](C)[C@]12Oc1c(Cl)c(-c3noc(C)n3)cc(OC)c1C2=O` [Example 7, (2S,5′R)-7-Chloro-3′,4-dimethoxy-5′-methyl-6-(5-methyl-1,2,4-oxadiazol-3-yl)spiro[benzofuran-2,4′-cyclohex-2-ene]-1′,3-dione], inhibition in vivo at 100 mg/kg 65%. Against it:
- COC1=CC(=O)C[C@@H](C)[C@]12Oc1c(Cl)c(-c3nnc([C@H](C)O)o3)cc(OC)c1C2=O [Example 9, (2S,5′R)-7-Chloro-6-[5-[(1S)-1-hydroxyethyl]-1,3,4-oxadiazol-2-yl]-3′,4-dimethoxy-5′-methyl-spiro[benzofuran-2,4′-cyclohex-2-ene]-1′,3-dione] — the same, 65%
- COC1=CC(=O)C[C@@H](C)[C@]12Oc1c(Cl)c(-c3nc(C)no3)cc(OCCO)c1C2=O [Example 15, (2S,5′R)-7-Chloro-4-(2-hydroxyethoxy)-3′-methoxy-5′-methyl-6-(3-methyl-1,2,4-oxadiazol-5-yl)spiro[benzofuran-2,4′-cyclohex-2-ene]-1′,3-dione] — lower, 55%
- COC1=CC(=O)C[C@@H](C)[C@]12Oc1c(Cl)c(-c3nnc(C(C)(C)O)o3)cc(OC)c1C2=O [Example 8, (2S,5′R)-7-Chloro-6-[5-(1-hydroxy-1-methyl-ethyl)-1,3,4-oxadiazol-2-yl]-3′,4-dimethoxy-5′-methyl-spiro[benzofuran-2,4′-cyclohex-2-ene]-1′,3-dione] — lower, 38%
- COC1=CC(=O)C[C@@H](C)[C@]12Oc1c(Cl)c(-c3nnc(C)o3)cc(OC)c1C2=O [Example 5, (2S,5′R)-7-Chloro-3′,4-dimethoxy-5′-methyl-6-(5-methyl-1,3,4-oxadiazol-2-yl)spiro[benzofuran-2,4′-cyclohex-2-ene]-1′,3-dione] — higher, 70%
- CCOc1cc(-c2nnc([C@H](C)O)o2)c(Cl)c2c1C(=O)[C@@]1(O2)C(OC)=CC(=O)C[C@H]1C [Example 12, (2S,5′R)-7-Chloro-4-ethoxy-6-[5-[(1S)-1-hydroxyethyl]-1,3,4-oxadiazol-2-yl]-3′-methoxy-5′-methyl-spiro[benzofuran-2,4′-cyclohex-2-ene]-1′,3-dione] — lower, 61%
- COC1=CC(=O)C[C@@H](C)[C@]12Oc1c(Cl)c(-c3nc(C(C)O)no3)cc(OC)c1C2=O (stereo partly drawn) [Example 13, (2S,5′R)-7-Chloro-6-[3-(l-hydroxyethyl)-1,2,4-oxadiazol-5-yl]-3′,4-dimethoxy-5′-methyl-spiro[benzofuran-2,4′-cyclohex-2-ene]-1′,3-dione] — higher, 82%
- COCCOc1cc(OC)c2c(c1Cl)O[C@]1(C2=O)C(OC)=CC(=O)C[C@H]1C [Example 2, (2S,5′R)-7-Chloro-3′,4-dimethoxy-6-(2-methoxyethoxy)-5′-methyl-spiro[benzofuran-2,4′-cyclohex-2-ene]-1′,3-dione] — higher, 71%
- COC1=CC(=O)C[C@@H](C)[C@]12Oc1c(Cl)c(-c3ccn(C)n3)cc(OC)c1C2=O [Example 3, (2S,5′R)-7-Chloro-3′,4-dimethoxy-5′-methyl-6-(1-methylpyrazol-3-yl)spiro[benzofuran-2,4′-cyclohex-2-ene]-1′,3-dione] — the same, 65%
- COC1=CC(=O)C[C@@H](C)[C@]12Oc1c(Cl)c(OC)cc(OC)c1C2=O [Griseofulvin] — lower, 19%
- COC1=CC(=O)C[C@@H](C)[C@]12Oc1c(Cl)c(OCCO)cc(OC)c1C2=O [Example 1, (2S,5′R)-7-Chloro-6-(2-hydroxyethoxy)-3′,4-dimethoxy-5′-methyl-spiro[benzofuran-2,4′-cyclohex-2-ene]-1′,3-dione] — lower, 62%
- COC1=CC(=O)C[C@@H](C)[C@]12Oc1c(Cl)c(-c3nnc([C@@H](C)O)o3)cc(OC)c1C2=O [Example 10, (2S,5′R)-7-Chloro-6-[5-[(1R)-1-hydroxyethyl]-1,3,4-oxadiazol-2-yl]-3′,4-dimethoxy-5′-methyl-spiro[benzofuran-2,4′-cyclohex-2-ene]-1′,3-dione] — lower, 58%
- CCn1ccc(-c2cc(OC)c3c(c2Cl)O[C@]2(C3=O)C(OC)=CC(=O)C[C@H]2C)n1 [Example 4, (2S,5′R)-7-Chloro-6-(1-ethylpyrazol-3-yl)-3′,4-dimethoxy-5′-methyl-spiro[benzofuran-2,4′-cyclohex-2-ene]-1′,3-dione] — higher, 73%
- COC1=CC(=O)C[C@@H](C)[C@]12Oc1c(Cl)c(-c3nc(C)no3)cc(OC)c1C2=O [Example 6, (2S,5′R)-7-Chloro-3′,4-dimethoxy-5′-methyl-6-(3-methyl-1,2,4-oxadiazol-5-yl)spiro[benzofuran-2,4′-cyclohex-2-ene]-1′,3-dione] — lower, 55%
- COC1=CC(=O)C[C@@H](C)[C@]12Oc1c(Cl)c(-c3noc(C)n3)cc(OCCO)c1C2=O [Example 16, (2S,5′R)-7-Chloro-4-(2-hydroxyethoxy)-3′-methoxy-5′-methyl-6-(5-methyl-1,2,4-oxadiazol-3-yl)spiro[benzofuran-2,4′-cyclohex-2-ene]-1′,3-dione] — lower, 62%
- COC1=CC(=O)C[C@@H](C)[C@]12Oc1c(Cl)c(-c3nnc(C)o3)cc(OCCO)c1C2=O [Example 14, (2S,5′R)-7-Chloro-4-(2-hydroxyethoxy)-3′-methoxy-5′-methyl-6-(5-methyl-1,3,4-oxadiazol-2-yl)spiro[benzofuran-2,4′-cyclohex-2-ene]-1′,3-dione] — lower, 24%
- CCOc1cc(-c2nnc(C(C)(C)O)o2)c(Cl)c2c1C(=O)[C@@]1(O2)C(OC)=CC(=O)C[C@H]1C [Example 11, (2S,5′R)-7-Chloro-4-ethoxy-6-[5-(1-hydroxy-1-methyl-ethyl)-1,3,4-oxadiazol-2-yl]-3′-methoxy-5′-methyl-spiro[benzofuran-2,4′-cyclohex-2-ene]-1′,3-dione] — lower, 61%
